# Reference: patent US5795899A, “Soluble salts of 4-amino-2-(4,4-dimethylimidazolidin-2-on-1-yl) pyrimidine-5-carboxylic acid N-methyl-N-(3-trifluoromethylphenyl)-amide, a process for the preparation thereof, the use thereof as pharmaceuticals and starting materials” (Hoechst Aktiengesellschaft, priority 1992, dated 1998)
# Where two headings read alike, the source gives them in different places.
# Assays:
# hypercholesterolemia = experiment: Effect on experimental hypercholesterolemia in male rats; format: in vivo, male Wistar rats, HOE: WISKf (SPF 71) strain; conditions: 100 mg/kg/day, oral, 7 days
# Procedure: Groups of in each case 10 male rats of the HOE: WISKf (SPF 71) strain with a weight of about 200 g received each day in the morning a cocktail which contained the substances required to generate a combined dietetic/hormonal hypercholesterolemia, and in each case the product to be tested for the inhibition of hypercholesterolemia, in appropriate dosage. The cocktail was composed of a mixture of 100 g of cholesterol, 30 g of propylthiouracil and 100 g of cholic acid in 1 l of peanut oil. 1 ml of this/100 g of body weight was administered by gavage. The products to be tested were suspended in this cocktail in a concentration such that it contained the daily dose indicated in Table 4 on administration of the amount mentioned above. The other procedure for the treatment and the analysis of the individual parameters were carried out as indicated under 4.1.
# Clofibrate was used as comparison product. The results are compiled in Table 4, wherein a) indicates the absolute values and b) indicates the percentage changes.
# [1] = system: carbohydrate-induced hypertriglyceridemia; experiment: Inhibition of carbohydrate-induced hypertriglyceridemia; format: in vivo, male Sprague-Dawley rats
# Procedure: Groups of in each case 10 male Sprague-Dawley rats (supplied by the breeder Mollegard with a weight of 250-280 g) received on each of 4 consecutive days one administration of the compound dissolved in PEG 400 by gavage. In addition, after the 3rd administration and 8 and 24 hours later they received 2.5 g of fructose/kg, likewise by gavage. Moreover, after the 3rd administration of product, 50% strength fructose solution was offered to them as drinking water ad libitum, and the food was withdrawn. Retroorbital removal of blood, from which the serum was obtained for the triglyceride determination and VLDL preparation in the ultracentrifuge (flotation at d=1.006), took place 3 hours after the last product/fructose administration. The food received by the animals from 1 week before the 1st administration and up to the 3rd administration was a diet with 40% casein in the feed meal.
# The animals develop, as a result of this treatment, a hypertriglyceridemia which approximately corresponds to Fredrickson phenotype IV in humans. The serum triglycerides of the normal animals increased from 0.54 to 1.1 mmol/l, and the VLDL triglycerides from 0.67 to 1.81.
# serum lipoproteins = experiment: Effect on serum lipoproteins of normolipemic male rats in a subchronic test; format: in vivo, male Wistar rats, HOE: WISKf (SPF 71) strain; conditions: 100 mg/kg/day, oral, 7 days
# Procedure: 4.1 Effect on serum lipoproteins of normolipemic male rats in a subchronic test
# Groups of in each case 10 male rats of the HOE: WISKf (SPF 71) strain with an initial weight above 180 g received once a day (in the morning) the test product or the comparison product in 1% aqueous ®Tylose MH 300 solution by stomach tube (0.5 ml/100 g of body weight); the control group in each case received only the vehicle. The last (7th) administration took place 24 hours before removal of blood and sacrifice. There was free access to food and water during the test. The food was withdrawn 24 hours before the removal of blood.
# The serum from all 10 rats in a group was pooled for the analysis of the serum lipoproteins. The serum lipoproteins were separated with a preparative ultracentrifuge (KONTRON TGA 65, Rotor BECKMAN 50.4 Ti).
# The following conditions specified by Koga, S., Horwitz, D. L., and Scanu, A. M., Journal of Lipid Research 10, 577 (1969) and Havel, R. J., Eder, H. A., and Bragdon, H. H., J. Clin. Invest. 34, 1345 (1955) were used to separate VLDL, LDL and HDL:
# Test kits from BOEHRINGER/Mannheim were used for the enzymatic determination of cholesterol and triglycerides in the separated lipoprotein fractions (compare Siedel, J., Schlumberger, H., Klose, S., Ziegenhorn, J. and Wahlefeld, A. W., J. Clin. Chem. Clin. Biochem. 19, 838 (1981) and Wahlefeld, A. W., in: H. O. Bergmeier: Methoden der enzymatischen Analyse (Methods of Enzymatic Analysis), 2nd edition, Volume II, Verlag Chemie 1974, page 1878). The proteins were determined by the method of Lowry (Lowry, O. H., Roseborough, N. J., Farr, A. L. and R. J. Randell, J. Biol. Chem. 193, 265 (1951)).
# Clofibrate was used as comparison product.
# physchem = conditions: water
# [2] = system: bronchial carcinoma cells, A 549; experiment: MTT assay, inhibition of cell proliferation, A 549; format: cell-based; conditions: Homo sapiens, A549; 72 hours incubation
# Procedure: (§1) The reduced inhibitory effect on cell proliferation was tested on exponentially growing animal (mouse leukemia cells, L 1210) and human (bronchial carcinoma cells, A 549; colon carcinoma cells, HT 29) tumor cells. This entailed the tumor cells being incubated in RPMI standard medium with various concentrations of the test substances for 72 hours. Cell incubations only in fresh medium served as control. Incubations were set up in quadruplet. […] After incubation for a further 7 to 24 hours, the cell supernatant was carefully removed and the formazan dye in the cells was solubilized by adding DMSO and measured quantitatively by photometry at 492 nm. The ratio of the extinction of the substance incubations to the control incubation was quantified. The coefficient of variation in each incubation series was less than 15%. The following Table 6 indicates the IC50 values (IC50 [μg/ml] is the concentration of the test substance per ml which is necessary for 50% inhibition) from these investigations.
# [3] = system: mouse leukemia cells, L 1210; experiment: MTT assay, inhibition of cell proliferation, L1210; format: cell-based; conditions: 72 hours incubation
# Procedure: as §1
# [4] = system: colon carcinoma cells, HT 29; experiment: MTT assay, inhibition of cell proliferation, HT 29; format: cell-based; conditions: Homo sapiens, 72 hours incubation
# Procedure: as §1
# [5] = Table 2, Temp. [°C]: hydrochloride 25.0, nitrate 23.5, p-toluenesulfonate 23.2, hydrogen (R,R)-tartrate 24.6, free base 24.8
# [6] = Table 1, Temp. [°C]: No. 1 25.0, 2 23.0, 3 26.2, 4 25.1, 5 25.2, 6 24.1, 7 24.5, 8 24.2, 9 24.2, 10 25.7, 11 25.8
smiles,measurement,setting,value
"CCOC(=O)C(C)(C)Oc1ccc(Cl)cc1 [Clofibrate, reference compound]","% change compared with control, protein ""HDL"" d > 1.04",hypercholesterolemia,-27%
same,"% change compared with control, protein LDL",hypercholesterolemia,+16%
same,"% change compared with control, protein VLDL",hypercholesterolemia,-63%
same,"% change compared with control, total cholesterol ""HDL"" d > 1.04",hypercholesterolemia,+10%
same,"% change compared with control, total cholesterol LDL",hypercholesterolemia,+16%
same,"% change compared with control, total cholesterol VLDL",hypercholesterolemia,+27%
same,"% change compared with control, triglycerides VLDL",hypercholesterolemia,+21%
same,"Lipoprotein fraction protein ""HDL""",hypercholesterolemia,3920
same,Lipoprotein fraction protein LDL,hypercholesterolemia,1435
same,Lipoprotein fraction protein VLDL,hypercholesterolemia,809
same,"Lipoprotein fraction total cholesterol ""HDL""",hypercholesterolemia,648
same,Lipoprotein fraction total cholesterol LDL,hypercholesterolemia,5434
same,Lipoprotein fraction total cholesterol VLDL,hypercholesterolemia,5924
same,Lipoprotein fraction triglycerides VLDL,hypercholesterolemia,1770
same,"Serum % change compared with control at the end of treatment, total cholesterol",hypercholesterolemia,+20%
same,"Serum % change compared with control at the end of treatment, triglycerides",hypercholesterolemia,+26%
same,"Triglycerides, pool",hypercholesterolemia,3.68 mmol/L
same,Total cholesterol (x),hypercholesterolemia; mean x,880 mg/dL
same,"Triglycerides in serum, % change from fructose control","[1]; 100 mg/kg/day, oral, 4 days",-25%
same,"Triglycerides in the VDVL fraction, % change from fructose control","[1]; 100 mg/kg/day, oral, 4 days",-37%
same,"Triglycerides in the VDVL fraction, pool n = 10","[1]; 100 mg/kg/day, oral, 4 days",1.15 mmol/L
same,Triglycerides in serum (x),"[1]; 100 mg/kg/day, oral, 4 days, mean x",0.83 mmol/L
same,Inhibitory effect on increase in VLDL triglycerides (in words),[1]; dose 100 times higher than 1 mg/kg/day,only a slight inhibitory effect
same,"% change compared with control, protein LDL",serum lipoproteins,-32%
same,"% change compared with control, total cholesterol LDL",serum lipoproteins,-31%
same,"% change compared with control, total cholesterol VLDL",serum lipoproteins,-30%
same,"% change compared with control, triglycerides VLDL",serum lipoproteins,-34%
"CC1(C)CN(c2ncc(C(=O)Nc3cccc(C(F)(F)F)c3)c(N)n2)C(=O)N1 [imanixil, 4-amino-2-(4,4-dimethylimidazolidin-2-on-1-yl)pyrimidine-5-carboxylic acid N-(3-trifluoromethylphenyl)amide, reference compound]",Solubility in water (in words),,exceptionally slightly soluble in water
"CN(C(=O)c1cnc(N2CC(C)(C)NC2=O)nc1N)c1cccc(C(F)(F)F)c1.Cc1ccc(S(=O)(=O)O)cc1 [p-Toluenesulfonate, 4-amino-2-(4,4-dimethyl-2-oxo-1-imidazolidinyl)pyrimidine-5-carboxylic aci d N-methyl-N-(3-trifluoromethylphenyl)amide p-toluenesulfonate]",solubility,physchem,65 mg/mL
same,1 part by mass dissolves in . . . parts of H2 O,[5],14.44 parts of H2 O
"CC1NC(=O)N(c2ncc(C(=O)Nc3cccc(C(F)(F)F)c3)c(N)n2)C1C (stereo not drawn) [No. 11, reference compound]",1 part by mass dissolves in . . . parts of H2 O,[6],277 parts of H2 O
CC1(C)CN(c2ncc(C(=O)Nc3cc(C(F)(F)F)ccc3Cl)c(N)n2)C(=O)N1 [Compound 4],1 part by mass dissolves in . . . parts of H2 O,[6],217 parts of H2 O
"CN(C(=O)c1cnc(N2CC(C)(C)NC2=O)nc1N)c1cccc(C(F)(F)F)c1.O=C(O)C(O)C(O)C(=O)O [Hydrogen (R,R)-tartrate, 4-amino-2-(4,4-dimethyl-2-oxo-1-imidazolidinyl)pyrimidine-5-carboxylic acid N-methyl-N-(3-trifluoromethylphenyl)amide hydrogen (R,R)-tartrate]",solubility,physchem,> 91 mg/mL
same,1 part by mass dissolves in . . . parts of H2 O,[5],< 9.90 parts of H2 O
CC1(C)CN(c2ncc(C(=O)Nc3ccc(F)c(C(F)(F)F)c3)c(N)n2)C(=O)N1 [Compound 3],1 part by mass dissolves in . . . parts of H2 O,[6],703 parts of H2 O
"CN(C(=O)c1cnc(N2CC(C)(C)NC2=O)nc1N)c1cccc(C(F)(F)F)c1.O=[N+]([O-])O [Nitrate, 4-amino-2-(4,4-dimethyl-2-oxo-1-imidazolidinyl)pyrimidine-5-carboxylic acid N-methyl-N-(3-trifluoromethylphenyl)amide nitrate]",solubility,physchem,110 mg/mL
same,1 part by mass dissolves in . . . parts of H2 O,[5],8.13 parts of H2 O
CC1(C)CN(c2ncc(C(=O)Nc3cccc(C(F)(F)F)c3)c(N)n2)C(=O)N1 [Compound 2],Solubility in water: Concentration in % by weight,[6],0.08 % by weight
same,Solubility in water: Molarity,[6],0.90 × 10^-3
COc1ccc(C(F)(F)F)cc1NC(=O)c1cnc(N2CC(C)(C)NC2=O)nc1N [Compound 6],Solubility in water (in words),,sparingly soluble in water
same,1 part by mass dissolves in . . . parts of H2 O,[6],75 parts of H2 O
CC1(C)CN(c2ncc(C(=O)Nc3ccc(Cl)c(C(F)(F)F)c3)c(N)n2)C(=O)N1 [Compound 5],1 part by mass dissolves in . . . parts of H2 O,[6],1055 parts of H2 O
"CCCC1(C)CN(c2ncc(C(=O)Nc3ccc(Cl)c(C(F)(F)F)c3)c(N)n2)C(=O)N1 (stereo not drawn) [No. 9, reference compound]",1 part by mass dissolves in . . . parts of H2 O,[6],725 parts of H2 O
same,Solubility in water: Concentration in % by weight,[6],0.13 % by weight
CCCC1(C)CN(c2ncc(C(=O)Nc3cc(C(F)(F)F)ccc3Cl)c(N)n2)C(=O)N1 (stereo not drawn) [Compound 8],1 part by mass dissolves in . . . parts of H2 O,[6],781 parts of H2 O
"CCCC1(C)CN(c2ncc(C(=O)Nc3cccc(C(F)(F)F)c3)c(N)n2)C(=O)N1 (stereo not drawn) [No. 10, reference compound]",1 part by mass dissolves in . . . parts of H2 O,[6],255 parts of H2 O
same,Solubility in water: Molarity,[6],8.54 × 10^-3
"CC1(C)CN(c2ncc(C(=O)Nc3cccc(C(F)(F)F)c3)c(N)n2)C(=O)N1 [No. 1, 4-amino-2-(4,4-dimethylimidazolidin-2-on-1-yl)pyrimidine-5-carboxylic acid N-(3-trifluoromethylphenyl)amide, reference compound]",IC50,[2],3.4 µg/mL
same,IC50,[3],0.7 µg/mL
same,IC50,[4],4.3 µg/mL
COc1ccc(NC(=O)c2cnc(N3CC(C)(C)NC3=O)nc2N)cc1C(F)(F)F [Compound 7],1 part by mass dissolves in . . . parts of H2 O,[6],554 parts of H2 O
